Counter-ions that a name gives are not always drawn.
Test system: hair cells
Assay: Hair cell toxicity assay in zebrafish (neomycin-induced hair cell death, DASPEI staining of neuromasts)
Format: in vivo
Settings: Danio rerio; for Emax at 2.8 µM: maximum observed @ 2.8 μM test compound; for EC50: zebrafish larvae 5-7 dpf, 1 h pre-treatment, then 200 micromolar neomycin + test compound 30 min, read-out: HC50 (concentration that would produce 50% hair cell survival); for Emax at 25 µM: maximum observed @ 25 μM test compound; for Emax at 8.3 µM: maximum observed @ 8.3 μM test compound
Protocol: Zebrafish are bred and newly fertilized embryos are collected the week prior and raised at 28.5° C. in petri dishes containing embryo medium. Newly hatched free-swimming larvae are fed paramecium and dry fish food at 4 days post fertilization (dpf) with lights on. For treatment, fish 5-7 dpf are transferred to cell culture baskets and place within a well of a 6-well plate containing 7 milliliters of 1× embryo medium. Typically, tests are done with ten fish per basket but work well with up to 50 fish. All treatment and wash volumes are 7 milliliters. • 1. Fish are pre-treated with test compound for 1 hour. […] Treat with 200 micromolar neomycin (neomycin sulfate, Sigma, St. Louis, Mo., catalog #N1142)+test compound for 30 minutes. • 3. Rinse fish briefly 4 times in embryo medium and add 700 μl of 0.05% DASPEI (2-{4-(dimethylamino)styryl}-N-ethylpyridinium iodide, Molecular Probes, Eugene, Oreg.) and allowed to stain for 15 minutes. • 4. Rinse twice in embryo medium and add 350 μl MS222 (0.55 ug/ml final concentration, 3-aminobenzoic acid ethyl ester, methansulfoneate salt, Sigma, St. Louis, Mo.) to anesthetize. • 5. View with epifluorescence dissecting microscope equipped with a DAPSEI filter set (excitation […], Chroma Technologies, Brattleboro, Vt.). For assessment of initial dose response curves, fish are transferred to wide depression slide with wide-bore pipette. The DASPEI staining of ten neuromasts (SO1, SO2, IO1, IO2, IO3, IO4, M2, MI1, MI2 and O2) on one side of an animal are evaluated. Each neuromast is scored for presence of DASPEI staining (score=2), reduced DASPEI staining (score=1) or absence of DASPEI staining (score=0). Total scores for an animal are tabulated, to give a composite score that can range from 0 to 20. Average scores and standard deviations are calculated for animals in each treatment group. Scores are normalized to control group (vehicle only, no drug, no neomycin) and expressed as % hair cell survival. HCmax is the maximum protection (hair cell survival) observed. • 6. If at least 50% hair cells survive, the HC50 (concentration that would produce 50% hair cell survival) is calculated as a linear extrapolation from the nearest concentrations of protective drug that produce hair cell survival below and above 50%. If less than 50% hair cells survive, the HC50 is not determined. 1× embryo media (standard lab EM): • 1 mM MgSO4, • 0.15 mM KH2PO4, • 0.05 mM Na2HPO4, • 1 mM CaCl2, • 0.5 mM KCl • 15 mM NaCl • 0.7 mM NaHCO3

[1] = 200 micromolar neomycin, read-out: Max HC Protection (HCmax, % hair cell survival)

| Structure (SMILES) | Emax at 2.8 µM [1] | EC50 | further results |
| --- | --- | --- | --- |
| CCN1CCc2c(sc(NC(=O)Nc3ccccc3Cl)c2C(N)=O)C1 [Example 65, 2-[3-(2-Chlorophenyl)ureido]-6-ethyl-4,5,6,7-tetrahydrothieno[2,3-c]pyridine-3-carboxamide hydrochloride] | 17% | – | – |
| CC[N+]1(CC2CCC2)CCc2c(sc(NC(=O)Nc3ccc(Cl)cc3)c2C(N)=O)C1 (stereo not drawn) [Example 190, 3-carbamoyl-2-[3-(4-chlorophenyl)ureido]-6-(cyclobutylmethyl)-6-ethyl-4,5,6,7-tetrahydrothieno[2,3-c]pyridin-6-ium chloride] | 100% | < 1000 nM | – |
| CC[N+]1(C)CCc2c(sc(NC(=O)Nc3ccc4cc(F)ccc4c3)c2C(N)=O)C1 (stereo not drawn) [Example 180, 3-Carbamoyl-6-ethyl-2-[3-(6-fluoronaphthalen-2-yl)ureido]-6-methyl-4,5,6,7-tetrahydrothieno[2,3-c]pyridin-6-ium iodide] | – | 1000 to 10000 nM | Emax at 25 µM [1]: 102% |
| CN(C)C(=O)CCC[N+]1(C)CCc2c(sc(NC(=O)Nc3ccc(Cl)cc3)c2C(N)=O)C1 (stereo not drawn) [Example 165, 3-Carbamoyl-2-[3-(4-chlorophenyl)ureido]-6-[4-(dimethylamino)-4-oxobutyl]-6-methyl-4,5,6,7-tetrahydrothieno[2,3-c]pyridin-6-ium trifluoroacetate] | 52% | 1000 to 10000 nM | – |
| CN(C)C(=O)CCN1CCc2c(sc(NC(=O)Nc3ccc(Cl)cc3)c2C(N)=O)C1 [Example 53, 2-[3-(4-Chlorophenyl)ureido]-6-[3-(dimethylamino)-3-oxopropyl]-4,5,6,7-tetrahydrothieno[2,3-c]pyridine-3-carboxamide hydrochloride] | – | 1000 to 10000 nM | Emax at 25 µM [1]: 103% |
| NC(=O)c1c(NC(=O)Nc2ccc(Cl)cc2)sc2c1CC1CCC2N1CC1CCC1 (racemic) [Example 132, (+/−)-2-[3-(4-Chlorophenyl)ureido]-9-(cyclobutylmethyl)-5,6,7,8-tetrahydro-4H-5,8-epiminocyclohepta[b]thiophene-3-carboxamide hydrochloride] | 97% | < 1000 nM | – |
| CCN1CCc2c(sc(NC(=O)Nc3ccc(Cl)cc3)c2C(=O)NCCO)C1 [Example 101, 2-[3-(4-Chlorophenyl)ureido]-6-ethyl-N-(2-hydroxyethyl)-4,5,6,7-tetrahydrothieno[2,3-c]pyridine-3-carboxamide hydrochloride] | – | 1000 to 10000 nM | Emax at 25 µM [1]: 74% |
| NC(=O)c1c(NC(=O)Nc2ccc(Cl)cc2)sc2c1CC1CCC2N1 (single isomer, unassigned; (+)) [Example 130, (+)-2-[3-(4-Chlorophenyl)ureido]-5,6,7,8-tetrahydro-4H-5,8-epiminocyclohepta[b]thiophene-3-carboxamide hydrochloride] | 40% | – | – |
| CC1(CN2CCc3c(sc(NC(=O)Nc4ccc(Cl)cc4)c3C(N)=O)C2)CCC1 [Example 24, 2-[3-(4-Chlorophenyl)ureido]-6-[(1-methylcyclobutyl)methyl]-4,5,6,7-tetrahydrothieno[2,3-c]pyridine-3-carboxamide trifluoroacetate] | 54% | 1000 to 10000 nM | – |
| CCN1CCc2c(sc(NC(=O)Nc3ccc(Br)cc3)c2C(N)=O)C1 [Example 222, 2-{[(4-bromophenyl)carbamoyl]amino}-6-ethyl-4H,5H,6H,7H-thieno[2,3-c]pyridine-3-carboxamide] | – | 1000 to 10000 nM | Emax at 25 µM [1]: 90% |
| NC(=O)c1c(NC(=O)Nc2ccc(Cl)cc2)sc2c1CC[N+](CCCO)(CCCO)C2 [Example 201, 3-Carbamoyl-2-[3-(4-chlorophenyl)ureido]-6,6-bis(3-hydroxypropyl)-4,5,6,7-tetrahydrothieno[2,3-c]pyridin-6-ium chloride] | – | < 1000 nM | Emax at 2.5 µM (maximum observed @ 2.5 μM test compound, 200 micromolar neomycin, read-out: Max HC Protection (HCmax, % hair cell survival)): 102% |
| C[N+]1(CC2CCCC2)CCc2c(sc(NC(=O)Nc3ccc(Cl)cc3)c2C(N)=O)C1 (stereo not drawn) [Example 153, 3-Carbamoyl-2-[3-(4-chlorophenyl)ureido]-6-(cyclopentylmethyl)-6-methyl-4,5,6,7-tetrahydrothieno[2,3-c]pyridin-6-ium iodide] | – | < 1000 nM | Emax at 8.3 µM [1]: 98% |
| CC(C)(C)OC(=O)CCCC[N+]1(C)CCc2c(sc(NC(=O)Nc3ccc(Cl)cc3)c2C(N)=O)C1 (stereo not drawn) [Example 155, 6-(5-tert-Butoxy-5-oxopentyl)-3-carbamoyl-2-[3-(4-chlorophenyl)ureido]-6-methyl-4,5,6,7-tetrahydrothieno[2,3-c]pyridin-6-ium iodide] | 75% | < 1000 nM | – |
| CC(C)(C)OC(=O)C1CC(N2CCc3c(sc(NC(=O)Nc4ccc(Cl)cc4)c3C(N)=O)C2)C1 (stereo not drawn) [Example 22, tert-Butyl 3-{3-carbamoyl-2-[3-(4-chlorophenyl)ureido]-4,5-dihydrothieno[2,3-c]pyridin-6(7H)-yl}cyclobutanecarboxylate] | 22% | – | – |
| C[N+]1(C)CCc2c(sc(NC(=O)Nc3ccc(Cl)cc3)c2C(N)=O)C1 [Example 162, 3-Carbamoyl-2-[3-(4-chlorophenyl)ureido]-6,6-dimethyl-4,5,6,7-tetrahydrothieno[2,3-c]pyridin-6-ium trifluoroacetate] | 36% | – | – |
| C[N+]1(CC2CCCCC2)CCc2c(sc(NC(=O)Nc3ccc(Cl)cc3)c2C(N)=O)C1 (stereo not drawn) [Example 152, 3-Carbamoyl-2-[3-(4-chlorophenyl)ureido]-6-(cyclohexylmethyl)-6-methyl-4,5,6,7-tetrahydrothieno[2,3-c]pyridin-6-ium iodide] | – | < 1000 nM | Emax at 0.9 µM (maximum observed @ 0.9 μM test compound, 200 micromolar neomycin, read-out: Max HC Protection (HCmax, % hair cell survival)): 78% |
| NC(=O)c1c(NC(=O)Nc2ccc(Cl)c3ccccc23)sc2c1CCN(CC1CCC1)C2 [Example 40, 2-[3-(4-Chloronaphthalen-1-yl)ureido]-6-(cyclobutylmethyl)-4,5,6,7-tetrahydrothieno[2,3-c]pyridine-3-carboxamide hydrochloride] | – | 1000 to 10000 nM | Emax at 8.3 µM [1]: 62% |
| CCN1CCc2c(sc(NC(=O)Nc3ccc(Oc4ccccc4)cc3)c2C(N)=O)C1 [Example 225, 6-ethyl-2-{[(4-phenoxyphenyl)carbamoyl]amino}-4H,5H,6H,7H-thieno[2,3-c]pyridine-3-carboxamide] | – | 1000 to 10000 nM | Emax at 25 µM [1]: 91% |
| CCN1CCc2c(sc(NC(=O)Nc3ccc(Cl)cc3Cl)c2C(N)=O)C1 [Example 229, 2-{[(2,4-dichlorophenyl)carbamoyl]amino}-6-ethyl-4H,5H,6H,7H-thieno[2,3-c]pyridine-3-carboxamide] | – | > 10000 nM | Emax at 25 µM [1]: 54% |
| CCN1CCc2c(sc(NC(=O)Nc3ccc(Cl)cc3)c2C(=O)NCC2CC2)C1 [Example 97, 2-[3-(4-Chlorophenyl)ureido]-N-(cyclopropylmethyl)-6-ethyl-4,5,6,7-tetrahydrothieno[2,3-c]pyridine-3-carboxamide hydrochloride] | – | – | Emax at 8.3 µM [1]: 37% |
| CC12CCC(C)(N1)c1sc(NC(=O)Nc3ccc(Cl)cc3)c(C(N)=O)c1C2 (racemic) [Example 123, (+/−)-2-[3-(4-Chlorophenyl)ureido]-5,8-dimethyl-5,6,7,8-tetrahydro-4H-5,8-epiminocyclohepta[b]thiophene-3-carboxamide trifluoroacetate] | 60% | < 1000 nM | – |
| CC(C)(C)C[N+]1(C)CCc2c(sc(NC(=O)Nc3ccc(Cl)cc3)c2C(N)=O)C1 (stereo not drawn) [Example 171, 3-Carbamoyl-2-[3-(4-chlorophenyl)ureido]-6-methyl-6-neopentyl-4,5,6,7-tetrahydrothieno[2,3-c]pyridin-6-ium iodide] | 92% | < 1000 nM | – |
| NC(=O)c1c(NC(=O)Nc2ccc(Cl)cc2)sc2c1CC1CCC2N1 (racemic) [Example 122, (+/−)-2-[3-(4-chlorophenyl)ureido]-5,6,7,8-tetrahydro-4H-5,8-epiminocyclohepta[b]thiophene-3-carboxamide hydrochloride] | – | < 1000 nM | Emax at 25 µM [1]: 91% |
| COC(=O)C(C)(C)CN1CCc2c(sc(NC(=O)Nc3ccc(Cl)cc3)c2C(N)=O)C1 [Example 38, Methyl 3-{3-carbamoyl-2-[3-(4-chlorophenyl)ureido]-4,5-dihydrothieno[2,3-c]pyridin-6(7H)-yl}-2,2-dimethylpropanoate hydrochloride] | 14% | – | – |
